Active and inactive are the calls of the source. The rule behind the calls is not given here.
Legend:
[1] = biological target: Vascular endothelial growth factor receptor 1 (Homo sapiens) (UniProt P17948); assay: Inhibition of FLT1 (unknown origin) at 0.2 uM incubated for 40 mins by radiometric kinase assay relative to control
[2] = test system: JeKo-1; assay: Induction of apoptosis in human JeKo-1 cells assessed as necrotic cells at 30 nM incubated for 72 hrs by Annexin VFITC/PI staining based flow cytometry analysis (reference value: 0.67%); type: functional
[3] = Acute toxicity in ICR mouse assessed as animal survival at 375 mg/kg, ip measured for 2 weeks; type: organism-based; settings: in vivo
[4] = test system: JeKo-1; assay: Antitumor activity against human JeKo-1 cells xenografted NOD/SCID mouse assessed as reduction in tumor weight at 50 mg/kg, ip measured for 16 days; type: functional; settings: time 16 day
[5] = Acute toxicity in ICR mouse assessed as animal survival at 240 mg/kg, ip measured for 2 weeks; type: organism-based; settings: in vivo
[6] = in vitro; settings: human, Caco-2
Description: Apparent permeability across apical to basolateral side in human Caco-2 cells incubated for 120 mins by LC-MS/MS analysis

[7] = Acute toxicity in ICR mouse assessed as animal survival at 585.9 mg/kg, ip measured for 2 weeks; type: organism-based; settings: in vivo
[8] = test system: JeKo-1; assay: Induction of apoptosis in human JeKo-1 cells assessed as late apoptotic cells at 750 nM incubated for 72 hrs by Annexin VFITC/PI staining based flow cytometry analysis (reference value: 1.42%); type: functional
[9] = Metabolic stability in human liver microsome assessed as intrinsic clearance preincubated with compound for 5 mins followed by NADPH addition and measured upto 60 mins by LC-MS/MS analysis; type: ADME; settings: liver microsomes, time < 65 min, read-out: CLH
[10] = Toxicity in NOD/SCID mouse xenografted with human MV4-11 cells assessed as effect on body weight loss at 10 to 20 mg/kg, ip administered once daily for 21 days; type: organism-based; settings: in vivo, 504 h, dose 10-20 mg/kg, time 21 day
[11] = Metabolic stability in human liver microsome assessed as half life preincubated with compound for 5 mins followed by NADPH addition and measured upto 60 mins by LC-MS/MS analysis; type: ADME; settings: liver microsomes, time < 65 min
[12] = test system: K562; assay: cells; settings: Homo sapiens, K562, 72 h
Description: Antiproliferative activity against human K562 cells assessed as inhibition of cell growth incubated for 72 hrs by CCK8 assay

[13] = test system: JeKo-1; assay: Induction of apoptosis in human JeKo-1 cells assessed as necrotic cells at 150 nM incubated for 72 hrs by Annexin VFITC/PI staining based flow cytometry analysis (reference value: 0.67%); type: functional
[14] = test system: JeKo-1; assay: Potency index, ratio of ibrutinib IC50 to test compound IC50 for antiproliferative activity against human JeKo-1 cells; type: functional
[15] = biological target: Tyrosine-protein kinase CSK (Homo sapiens) (UniProt P41240); assay: Inhibition of CSK (unknown origin) at 0.2 uM incubated for 40 mins by radiometric kinase assay relative to control
Sequence of Tyrosine-protein kinase CSK (Homo sapiens) (P41240 2-450 limits assumed): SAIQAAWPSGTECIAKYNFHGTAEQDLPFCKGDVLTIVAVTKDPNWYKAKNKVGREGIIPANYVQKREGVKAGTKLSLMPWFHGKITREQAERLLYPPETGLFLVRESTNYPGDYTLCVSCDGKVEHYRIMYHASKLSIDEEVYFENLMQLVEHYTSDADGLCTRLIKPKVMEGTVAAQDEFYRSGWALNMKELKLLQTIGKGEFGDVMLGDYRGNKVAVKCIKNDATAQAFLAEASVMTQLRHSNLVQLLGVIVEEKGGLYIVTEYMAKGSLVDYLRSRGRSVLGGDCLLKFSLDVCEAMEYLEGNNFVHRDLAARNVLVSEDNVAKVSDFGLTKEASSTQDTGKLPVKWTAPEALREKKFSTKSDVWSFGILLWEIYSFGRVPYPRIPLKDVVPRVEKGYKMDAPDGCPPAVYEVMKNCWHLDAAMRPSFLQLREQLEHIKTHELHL

[16] = Toxicity in NOD/SCID mouse xenografted with human JeKo-1 cells assessed as eating abnormalities at 25 to 50 mg/kg, ip measured for 16 days; type: organism-based; settings: in vivo, 384 h, dose 25-50 mg/kg, time 16 day
[17] = test system: JeKo-1; assay: Induction of apoptosis in human JeKo-1 cells assessed as necrotic cells at 750 nM incubated for 72 hrs by Annexin VFITC/PI staining based flow cytometry analysis (reference value: 0.67%); type: functional
[18] = test system: JeKo-1; assay: Induction of apoptosis in human JeKo-1 cells assessed as late apoptotic cells at 30 nM incubated for 72 hrs by Annexin VFITC/PI staining based flow cytometry analysis (reference value: 1.42%); type: functional
[19] = biological target: Receptor-type tyrosine-protein kinase FLT3 (Homo sapiens) (UniProt P36888); assay: Inhibition of FLT3 phosphorylation in human JeKo-1 cells incubated for 72 hrs by Western blot analysis; type: cell-based; settings: dose 30-750 nM
Sequence of Receptor-type tyrosine-protein kinase FLT3 (Homo sapiens) (P36888 whole entry): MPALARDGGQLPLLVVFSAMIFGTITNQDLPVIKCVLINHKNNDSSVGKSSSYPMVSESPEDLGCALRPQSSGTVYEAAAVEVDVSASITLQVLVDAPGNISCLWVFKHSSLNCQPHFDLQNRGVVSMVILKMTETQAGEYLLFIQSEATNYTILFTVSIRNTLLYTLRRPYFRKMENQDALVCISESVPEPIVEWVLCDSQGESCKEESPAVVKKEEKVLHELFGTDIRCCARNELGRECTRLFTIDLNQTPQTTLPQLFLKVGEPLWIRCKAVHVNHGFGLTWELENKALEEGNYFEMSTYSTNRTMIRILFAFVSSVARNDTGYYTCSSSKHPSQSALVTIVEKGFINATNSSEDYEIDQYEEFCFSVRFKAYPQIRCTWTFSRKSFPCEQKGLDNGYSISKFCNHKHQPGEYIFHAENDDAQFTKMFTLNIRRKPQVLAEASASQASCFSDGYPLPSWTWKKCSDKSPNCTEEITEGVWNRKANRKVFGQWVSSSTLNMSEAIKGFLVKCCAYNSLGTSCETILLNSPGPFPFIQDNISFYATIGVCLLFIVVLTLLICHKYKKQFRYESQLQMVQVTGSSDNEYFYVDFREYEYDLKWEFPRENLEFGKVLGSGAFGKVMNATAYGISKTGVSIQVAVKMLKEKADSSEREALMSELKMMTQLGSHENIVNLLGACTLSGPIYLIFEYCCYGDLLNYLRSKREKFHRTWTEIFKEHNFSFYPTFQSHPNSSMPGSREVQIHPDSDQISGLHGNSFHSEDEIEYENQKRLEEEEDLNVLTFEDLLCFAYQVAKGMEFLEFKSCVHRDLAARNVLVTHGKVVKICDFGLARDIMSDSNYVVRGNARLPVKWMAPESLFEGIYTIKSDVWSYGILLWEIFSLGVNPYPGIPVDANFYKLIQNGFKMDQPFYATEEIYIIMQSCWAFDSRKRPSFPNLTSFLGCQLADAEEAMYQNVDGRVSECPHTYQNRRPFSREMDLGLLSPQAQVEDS

[20] = biological target: Tyrosine-protein kinase SYK (Homo sapiens) (UniProt P43405); assay: Inhibition of SYK (unknown origin) at 0.2 uM incubated for 40 mins by radiometric kinase assay relative to control
[21] = biological target: Serine/threonine-protein kinase PLK2 (Homo sapiens) (UniProt Q9NYY3); assay: Inhibition of SNK (unknown origin) at 0.2 uM incubated for 40 mins by radiometric kinase assay relative to control
Sequence of Serine/threonine-protein kinase PLK2 (Homo sapiens) (Q9NYY3 whole entry, looked up): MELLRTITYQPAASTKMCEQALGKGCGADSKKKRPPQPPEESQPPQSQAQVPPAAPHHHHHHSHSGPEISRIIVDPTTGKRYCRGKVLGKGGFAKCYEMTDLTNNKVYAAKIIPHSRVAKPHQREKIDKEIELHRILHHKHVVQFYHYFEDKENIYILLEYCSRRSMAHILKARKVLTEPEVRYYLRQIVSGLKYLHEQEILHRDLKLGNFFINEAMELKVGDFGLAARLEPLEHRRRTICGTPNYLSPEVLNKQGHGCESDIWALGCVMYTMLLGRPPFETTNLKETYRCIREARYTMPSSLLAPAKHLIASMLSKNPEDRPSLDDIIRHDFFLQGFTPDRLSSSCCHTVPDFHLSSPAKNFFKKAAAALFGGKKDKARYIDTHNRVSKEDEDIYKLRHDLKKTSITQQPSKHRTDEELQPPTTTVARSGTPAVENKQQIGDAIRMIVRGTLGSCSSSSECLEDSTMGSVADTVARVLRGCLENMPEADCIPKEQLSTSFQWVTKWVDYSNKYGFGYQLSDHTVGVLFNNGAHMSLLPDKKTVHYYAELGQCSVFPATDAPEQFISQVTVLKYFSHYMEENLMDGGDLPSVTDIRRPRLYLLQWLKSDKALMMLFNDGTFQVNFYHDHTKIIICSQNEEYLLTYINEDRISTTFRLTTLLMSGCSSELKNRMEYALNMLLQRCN

[22] = test system: JeKo-1; assay: Antitumor activity against human JeKo-1 cells xenografted NOD/SCID mouse assessed as tumor growth inhibition at 50 mg/kg, ip measured for 16 days; type: functional; settings: JeKo-1, 384 h, time 16 day, read-out: TGI
[23] = biological target: Serine/threonine-protein kinase pim-1 (Homo sapiens) (UniProt P11309); assay: Inhibition of PIM-1 (unknown origin) at 0.2 uM incubated for 40 mins by radiometric kinase assay relative to control
Sequence of Serine/threonine-protein kinase pim-1 (Homo sapiens) (P11309 whole entry, looked up): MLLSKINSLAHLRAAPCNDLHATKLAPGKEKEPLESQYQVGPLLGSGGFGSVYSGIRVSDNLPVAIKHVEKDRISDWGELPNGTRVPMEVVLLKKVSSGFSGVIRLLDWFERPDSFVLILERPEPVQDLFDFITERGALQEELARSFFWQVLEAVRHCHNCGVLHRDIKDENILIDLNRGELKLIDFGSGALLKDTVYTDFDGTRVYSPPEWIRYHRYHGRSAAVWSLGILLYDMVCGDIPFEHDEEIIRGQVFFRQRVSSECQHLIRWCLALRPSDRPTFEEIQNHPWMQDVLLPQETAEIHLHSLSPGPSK

[24] = test system: MV4-11; assay: Antitumor activity against human MV4-11 cells xenografted in NOD/SCID mouse assessed as tumor growth inhibition at 10 mg/kg ip administered once daily for 21 days; type: functional; settings: MV4-11, 504 h, time 21 day, read-out: TGI
[25] = biological target: Tyrosine-protein kinase BTK (Homo sapiens, UniProt Q06187); assay: Inhibition of BTK (unknown origin) incubated for 40 mins by radiometric kinase assay
Sequence of Tyrosine-protein kinase BTK (Q06187 whole entry): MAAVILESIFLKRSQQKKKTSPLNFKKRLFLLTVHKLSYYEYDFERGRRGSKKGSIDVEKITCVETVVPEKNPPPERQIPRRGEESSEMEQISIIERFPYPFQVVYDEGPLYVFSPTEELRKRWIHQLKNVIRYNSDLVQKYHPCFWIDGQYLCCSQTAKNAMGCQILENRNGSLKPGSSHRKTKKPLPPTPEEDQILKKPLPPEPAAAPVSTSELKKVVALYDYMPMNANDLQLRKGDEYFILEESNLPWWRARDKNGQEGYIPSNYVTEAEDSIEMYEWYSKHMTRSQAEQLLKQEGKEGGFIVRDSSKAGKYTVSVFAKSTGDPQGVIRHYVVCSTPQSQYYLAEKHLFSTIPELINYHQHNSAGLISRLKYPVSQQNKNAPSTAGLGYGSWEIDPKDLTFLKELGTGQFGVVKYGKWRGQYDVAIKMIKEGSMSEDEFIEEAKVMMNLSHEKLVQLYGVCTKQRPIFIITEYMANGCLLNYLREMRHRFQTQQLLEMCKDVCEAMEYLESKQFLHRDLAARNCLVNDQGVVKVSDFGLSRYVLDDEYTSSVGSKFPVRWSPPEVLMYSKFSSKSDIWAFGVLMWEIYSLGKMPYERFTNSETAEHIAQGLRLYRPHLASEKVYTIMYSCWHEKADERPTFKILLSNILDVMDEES

[26] = biological target: MAP kinase-activated protein kinase 2 (Homo sapiens) (UniProt P49137); assay: Inhibition of MAPKAP-K2 (unknown origin) at 0.2 uM incubated for 40 mins by radiometric kinase assay relative to control
Sequence of MAP kinase-activated protein kinase 2 (Homo sapiens) (P49137 whole entry, looked up): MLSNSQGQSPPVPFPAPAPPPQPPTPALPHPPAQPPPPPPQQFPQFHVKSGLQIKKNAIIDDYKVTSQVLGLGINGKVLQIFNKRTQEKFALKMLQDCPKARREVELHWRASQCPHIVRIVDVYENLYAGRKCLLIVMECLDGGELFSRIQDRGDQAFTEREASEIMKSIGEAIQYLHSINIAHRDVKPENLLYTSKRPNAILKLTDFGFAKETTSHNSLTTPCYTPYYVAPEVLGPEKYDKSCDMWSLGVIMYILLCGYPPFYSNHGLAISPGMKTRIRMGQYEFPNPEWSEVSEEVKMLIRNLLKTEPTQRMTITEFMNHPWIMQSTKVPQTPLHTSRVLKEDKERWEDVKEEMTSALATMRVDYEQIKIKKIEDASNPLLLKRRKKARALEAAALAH

[27] = biological target: Mitogen-activated protein kinase 8 (Homo sapiens) (UniProt P45983); assay: Inhibition of JNK1alpha1 (unknown origin) at 0.2 uM incubated for 40 mins by radiometric kinase assay relative to control
Sequence of Mitogen-activated protein kinase 8 (Homo sapiens) (P45983 whole entry): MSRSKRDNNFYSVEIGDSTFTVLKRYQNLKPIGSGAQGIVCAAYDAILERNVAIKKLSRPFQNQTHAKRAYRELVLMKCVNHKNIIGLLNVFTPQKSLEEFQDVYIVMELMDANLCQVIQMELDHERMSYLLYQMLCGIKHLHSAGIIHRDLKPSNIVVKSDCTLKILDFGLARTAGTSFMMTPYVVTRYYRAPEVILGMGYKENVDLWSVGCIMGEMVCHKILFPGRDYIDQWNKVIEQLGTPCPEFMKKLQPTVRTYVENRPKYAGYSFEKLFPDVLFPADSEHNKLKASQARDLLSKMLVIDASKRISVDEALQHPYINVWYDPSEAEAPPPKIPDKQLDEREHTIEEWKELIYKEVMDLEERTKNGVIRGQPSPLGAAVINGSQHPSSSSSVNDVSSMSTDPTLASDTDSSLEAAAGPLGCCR

[28] = Toxicity in NOD/SCID mouse xenografted with human JeKo-1 cells assessed as abnormal activity at 25 to 50 mg/kg, ip measured for 16 days; type: organism-based; settings: in vivo, 384 h, dose 25-50 mg/kg, time 16 day
[29] = test system: JeKo-1; assay: Induction of apoptosis in human JeKo-1 cells assessed as upregulation of p53 protein expression incubated for 72 hrs by Western blot analysis; type: functional, cell-based; settings: dose 30-750 nM
[30] = biological target: Mast/stem cell growth factor receptor Kit (Homo sapiens) (UniProt P10721); assay: Inhibition of cKit (unknown origin) at 0.2 uM incubated for 40 mins by radiometric kinase assay relative to control
Sequence of Mast/stem cell growth factor receptor Kit (Homo sapiens) (P10721 whole entry): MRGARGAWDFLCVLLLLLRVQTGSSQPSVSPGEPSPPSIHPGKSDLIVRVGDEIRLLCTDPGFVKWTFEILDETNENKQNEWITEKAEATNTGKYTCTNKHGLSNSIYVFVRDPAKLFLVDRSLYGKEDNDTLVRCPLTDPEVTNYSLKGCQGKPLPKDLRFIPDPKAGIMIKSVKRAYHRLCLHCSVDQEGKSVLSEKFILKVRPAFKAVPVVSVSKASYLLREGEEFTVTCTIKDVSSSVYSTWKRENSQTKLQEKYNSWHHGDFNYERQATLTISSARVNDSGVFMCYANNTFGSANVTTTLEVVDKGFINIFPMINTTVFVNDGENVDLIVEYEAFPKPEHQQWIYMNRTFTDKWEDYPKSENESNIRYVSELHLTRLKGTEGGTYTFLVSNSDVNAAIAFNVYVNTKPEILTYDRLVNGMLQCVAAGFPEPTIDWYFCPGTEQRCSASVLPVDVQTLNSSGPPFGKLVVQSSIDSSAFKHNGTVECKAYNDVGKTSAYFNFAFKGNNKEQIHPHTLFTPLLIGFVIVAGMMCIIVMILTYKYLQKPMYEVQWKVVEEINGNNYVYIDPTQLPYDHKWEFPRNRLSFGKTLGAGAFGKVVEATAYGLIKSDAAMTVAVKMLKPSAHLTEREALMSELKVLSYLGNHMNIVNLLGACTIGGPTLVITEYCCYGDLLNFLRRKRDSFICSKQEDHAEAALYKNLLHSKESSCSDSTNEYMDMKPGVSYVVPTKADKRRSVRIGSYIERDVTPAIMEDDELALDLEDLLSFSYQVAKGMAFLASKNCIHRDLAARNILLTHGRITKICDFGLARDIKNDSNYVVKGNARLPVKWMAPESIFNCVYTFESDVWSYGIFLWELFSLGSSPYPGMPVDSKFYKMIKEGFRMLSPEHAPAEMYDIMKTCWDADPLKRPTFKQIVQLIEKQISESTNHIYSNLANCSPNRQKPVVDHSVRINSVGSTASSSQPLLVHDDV

[31] = test system: JeKo-1; assay: Induction of apoptosis in human JeKo-1 cells assessed as upregulation of Bax protein expression at 30 to 750 nM incubated for 72 hrs by Western blot analysis; type: functional, cell-based; settings: dose 30-750 nM
[32] = test system: MV4-11; assay: cells; settings: Homo sapiens, MV4-11, 72 h
[33] = Acute toxicity in ip dosed ICR mouse assessed as effect on RBC level at 200 mg/kg, ip measured for 2 weeks; type: organism-based, Erythrocyte; settings: in vivo, 336 h
[34] = test system: JeKo-1; assay: Induction of apoptosis in human JeKo-1 cells assessed as viable cells at 750 nM incubated for 72 hrs by Annexin VFITC/PI staining based flow cytometry analysis (reference value: 94.81%); type: functional; settings: Homo sapiens, JeKo-1, read-out: Activity
[35] = test system: MV4-11; assay: Antitumor activity against human MV4-11 cells xenografted NOD/SCID mouse assessed as increase in tumor necrotic cells at 20 mg/kg, ip administered once daily for 21 days by H and E staining analysis; type: functional, organism-based; settings: time 21.0 day
[36] = Toxicity in NOD/SCID mouse xenografted with human JeKo-1 cells assessed as effect on body weight at 25 to 50 mg/kg, ip measured for 16 days; type: organism-based; settings: in vivo, 384 h, dose 25-50 mg/kg, time 16 day

CN1CCN(c2ccc(Nc3ncc(F)c(Nc4ccccc4C(=O)NN)n3)cc2)CC1
inhibition [1]: 100% | Activity [2]: 0.22% | survival at 336 h [3]: 40% | Activity [4]: 0.18 g | survival at 336 h [5]: 100% | Papp A→B at 2 h [6]: 5.11 ×10⁻⁶ cm/s | survival at 336 h [7]: 0% | Activity [8]: 0.47% | CLint scaled [9]: 30.1 mL/min/kg | Activity [10]: Non-Toxic | half-life [11]: 41.5 min | IC50 [12]: 930 nM | Activity [13]: 0.37% | Ratio IC50 [14]: 6 | inhibition [15]: 6% | Activity [16]: Non-Toxic | Activity [17]: 0.11% | Activity [18]: 0.18% | inhibition [19]: Dose-Dependent Effect | inhibition [20]: 4% | inhibition [21]: 43% | inhibition in vivo at 50 mg/kg [22]: 79.8% | inhibition [23]: 28% | inhibition in vivo at 10 mg/kg [24]: 74.2% | IC50 [25]: 47 nM | inhibition [26]: 6% | inhibition [27]: 27% | Activity [28]: Non-Toxic | Activity [29]: Dose-Dependent Effect | inhibition [30]: 10% | Activity [31]: Active | IC50 [32]: 3 nM | Activity [33]: Toxic | viability at 0.75 µM [34]: 61.5% | Activity [35]: Active | Activity [36]: Non-Toxic

Source: ChEMBL document CHEMBL5385861, “Development of novel hydrazidoarylaminopyrimidine-based BTK/FLT3 dual inhibitors with potent in vivo anti-hematological malignancies effects” (Eur J Med Chem, 2023)
